Test results from US8318504B2, “MRP2 efflux pathway prognostic method” (priority 2009, dated 2012).

How the values were obtained:
Type in all cases: cell-based
[1] = target: T1, OATP2B1 (Homo sapiens, UniProt O94956); assay: Inhibition by CLF of estrone-3-sulfate transport in CHO cells expressing OATP2B1; conditions: 0, 5 or 50 μmol/L CLF, 1 μmol/L estrone-3-sulfate
T1 construct: expressed in transfected cells; host or cells: CHO cells (stably transfected; Treiber et al. 2007)
T1 sequence (O94956 1-709): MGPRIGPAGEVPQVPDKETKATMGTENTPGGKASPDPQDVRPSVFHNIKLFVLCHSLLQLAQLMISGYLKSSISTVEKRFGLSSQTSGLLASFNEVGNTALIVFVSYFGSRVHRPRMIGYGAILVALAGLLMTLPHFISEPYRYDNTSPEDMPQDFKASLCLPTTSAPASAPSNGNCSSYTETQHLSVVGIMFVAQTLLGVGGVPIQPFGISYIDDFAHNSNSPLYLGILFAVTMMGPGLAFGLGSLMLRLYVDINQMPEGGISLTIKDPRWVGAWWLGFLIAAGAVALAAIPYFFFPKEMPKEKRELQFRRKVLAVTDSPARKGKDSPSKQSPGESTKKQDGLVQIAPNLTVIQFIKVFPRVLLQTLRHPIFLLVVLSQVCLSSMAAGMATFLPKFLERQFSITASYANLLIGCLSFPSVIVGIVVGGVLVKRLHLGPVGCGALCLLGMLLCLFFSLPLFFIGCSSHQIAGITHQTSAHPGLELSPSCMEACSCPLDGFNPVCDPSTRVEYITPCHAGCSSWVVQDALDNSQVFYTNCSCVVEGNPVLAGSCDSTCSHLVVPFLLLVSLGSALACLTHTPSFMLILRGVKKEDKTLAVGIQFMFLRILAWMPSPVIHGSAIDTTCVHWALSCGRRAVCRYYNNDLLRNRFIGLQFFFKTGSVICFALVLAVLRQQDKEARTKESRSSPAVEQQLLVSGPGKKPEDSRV
Protocol: (§1) FIGS. 3A-3D relate to inhibition of transport activity of hepatocellular uptake transporters by CLF. CHO cells expressing NTCP, OATP1B1, OATP1B3 and OATP2B1 were incubated with 0, 5 or 50 μmol/L CLF and with the substrates, 2.5 μmol/L TC, 1 μmol/L estrone-3-sulfate, 10 μmol/L TC and 1 μmol/L estrone-3-sulfate, respectively. Data represent means±SD of triplicate determinations.
(§2) For all transport experiments, cells grown on 3 cm culture dishes were cultured for 24 hours in media supplemented with 5 mmol/L sodium-butyrate to increase expression levels of transfected transporters [Palermo D P et al., J Biotechnol 1991 June; 19(1):35-47]. • Transport experiments with uptake of radioactively labeled substrates: These experiments were performed as described by Huber R D et al. [Am J Physiol Cell Physiol 2007 February; 292(2):C795-C806]. • Transport experiments with uptake of CLF: Uptake was performed in the same buffers as for the radioactive substrates above. […] After complete solubilization, 1.5 ml was used to measure fluorescence in a Perkin-Elmer LS-5 luminescence-spectrometer set at λexe 486 nm (slit 10 nm) and λem 520 nm (slit 5 nm). Protein was determined with the bicinchoninic acid method using a kit from Interchim (Montfuçon, France). […]

[2] = test system: wild type CHO cells; assay: Effect of CLF on substrate uptake in wild type CHO cells
Protocol: For all transport experiments, cells grown on 3 cm culture dishes were cultured for 24 hours in media supplemented with 5 mmol/L sodium-butyrate to increase expression levels of transfected transporters [Palermo D P et al., J Biotechnol 1991 June; 19(1):35-47]. • Transport experiments with uptake of radioactively labeled substrates: These experiments were performed as described by Huber R D et al. [Am J Physiol Cell Physiol 2007 February; 292(2):C795-C806]. • Transport experiments with uptake of CLF: Uptake was performed in the same buffers as for the radioactive substrates above. For visualization of CLF uptake, cells were immediately inspected with a Leica-DM-IRBE-inverted-microcope (Leica-Microsystems, Wetzlar, Germany) equipped with a Hamamatsu-ORKA-ER-camera (Hamamatsu-Photonoics, Japan). To determine uptake of CLF, cells were solubilized by the addition of 2 ml 1% (w/v) Triton-X-100. After complete solubilization, 1.5 ml was used to measure fluorescence in a Perkin-Elmer LS-5 luminescence-spectrometer set at λexe 486 nm (slit 10 nm) and λem 520 nm (slit 5 nm). Protein was determined with the bicinchoninic acid method using a kit from Interchim (Montfuçon, France). Transport data from OATP expressing cell lines were corrected for binding by subtracting 0 min time points (blank values) and except for FIGS. 2B and 2C were normalized per minute. […]

[3] = target: T2, NTCP (Homo sapiens, UniProt Q14973); assay: Inhibition by CLF of TC transport in CHO cells expressing NTCP; conditions: 0, 5 or 50 μmol/L CLF, 2.5 μmol/L TC
T2 construct: the coding region ligated into pcDNA5/FRT; expressed in transfected cells
T2 sequence (Q14973 1-349): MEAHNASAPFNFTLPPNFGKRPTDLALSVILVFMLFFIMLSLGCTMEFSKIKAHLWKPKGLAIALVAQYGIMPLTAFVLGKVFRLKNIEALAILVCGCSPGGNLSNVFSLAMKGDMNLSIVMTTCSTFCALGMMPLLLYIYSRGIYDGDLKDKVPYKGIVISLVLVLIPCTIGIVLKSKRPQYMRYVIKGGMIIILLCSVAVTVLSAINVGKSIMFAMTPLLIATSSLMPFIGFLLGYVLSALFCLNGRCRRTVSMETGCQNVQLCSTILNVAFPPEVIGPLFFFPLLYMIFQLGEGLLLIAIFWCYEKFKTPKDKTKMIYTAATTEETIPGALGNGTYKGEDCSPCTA
Protocol: as §1, §2

SMILES: CC(CCC(=O)NC(CCCCNC(=S)Nc1ccc(-c2c3ccc(=O)cc-3oc3cc(O)ccc23)c(C(=O)O)c1)C(=O)O)C1CCC2C3C(O)CC4CC(O)CCC4(C)C3CC(O)C12C (stereo not drawn) [CLF, cholyl lysyl fluorescein]
- inhibition of transport of estrone-3-sulfate mediated by OATP2B1 by CLF [1]: much less efficiently
- influence of CLF on substrate uptake in wild type cells [2]: no influence on substrate uptake
- inhibition of transport of TC via NTCP by CLF [3]: very efficiently inhibited
